Reference: ChEMBL document CHEMBL2346592, “Arylglycine derivatives as potent transient receptor potential melastatin 8 (TRPM8) antagonists” (Bioorg Med Chem Lett, 2013)

Columns and labels:
[1] = target: Transient receptor potential M8 protein (Canis lupus familiaris, UniProt Q1A7N1); assay: Antagonist activity at dog TRPM8 expressed in HEK293 cells assessed as inhibition of icilin-induced calcium influx incubated for 5 mins prior to icilin induction measured after 5 mins by fluorescence assay; format: cell-based
Sequence of Transient receptor potential M8 protein (Q1A7N1 whole entry): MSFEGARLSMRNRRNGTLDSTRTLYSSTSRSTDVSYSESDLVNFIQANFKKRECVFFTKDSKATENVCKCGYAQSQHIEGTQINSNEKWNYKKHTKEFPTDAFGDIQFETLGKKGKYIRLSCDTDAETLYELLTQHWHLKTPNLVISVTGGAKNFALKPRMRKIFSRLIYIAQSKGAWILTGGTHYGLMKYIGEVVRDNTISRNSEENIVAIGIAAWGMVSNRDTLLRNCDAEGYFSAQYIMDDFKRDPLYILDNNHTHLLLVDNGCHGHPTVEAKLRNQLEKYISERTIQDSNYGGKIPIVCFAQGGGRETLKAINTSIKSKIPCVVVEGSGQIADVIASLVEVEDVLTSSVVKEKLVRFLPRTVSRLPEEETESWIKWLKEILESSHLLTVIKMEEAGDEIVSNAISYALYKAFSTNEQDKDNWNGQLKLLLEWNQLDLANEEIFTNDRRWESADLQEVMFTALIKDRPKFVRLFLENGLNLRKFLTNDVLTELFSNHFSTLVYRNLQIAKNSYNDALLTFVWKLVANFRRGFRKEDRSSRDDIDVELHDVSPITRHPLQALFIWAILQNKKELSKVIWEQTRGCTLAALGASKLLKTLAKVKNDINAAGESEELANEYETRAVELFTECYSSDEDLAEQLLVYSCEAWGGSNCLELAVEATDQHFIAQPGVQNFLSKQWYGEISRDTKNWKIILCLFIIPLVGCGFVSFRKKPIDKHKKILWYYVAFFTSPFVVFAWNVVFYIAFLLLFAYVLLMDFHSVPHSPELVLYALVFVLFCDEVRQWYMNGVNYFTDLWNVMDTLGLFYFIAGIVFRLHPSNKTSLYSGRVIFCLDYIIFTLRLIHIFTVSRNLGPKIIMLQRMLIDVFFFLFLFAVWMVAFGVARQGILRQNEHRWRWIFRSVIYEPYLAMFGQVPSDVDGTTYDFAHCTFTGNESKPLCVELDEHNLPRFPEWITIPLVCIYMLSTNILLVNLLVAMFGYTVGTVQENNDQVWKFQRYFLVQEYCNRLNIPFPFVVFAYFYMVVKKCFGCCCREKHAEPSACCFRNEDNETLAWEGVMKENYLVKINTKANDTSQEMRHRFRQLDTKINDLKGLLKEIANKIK

Rattus norvegicus = assay: Anti-cold hypersensitive activity in rat assessed as inhibition of icilin-induced wet-dog shaking at 30 mg/kg, po measured for 10 mins relative to control; format: functional

| SMILES | IC50 [1] [nM] | inhibition in vivo at 30 mg/kg (Rattus norvegicus) [%] |
| --- | --- | --- |
| O=C(C(Nc1ccccc1F)c1ccc(C(F)(F)F)cc1)N1CCC[C@@H]1c1ccccc1 (stereo partly drawn) | 43 | – |
| O=C(C(Nc1ccccc1F)c1ccc(C(F)(F)F)cc1)N1CCC[C@H]1c1ccccc1 (mixture of isomers) | 5 | 56 |
| O=C(C(Nc1ccccc1F)c1cc2ccccc2s1)N1CCC[C@H]1c1ccccc1F (mixture of isomers) | 3 | – |
| O=C(C(Nc1ccccc1F)c1ccc(-c2cccnc2)cc1)N1CCC[C@H]1c1ccccc1F (mixture of isomers) | 7 | -13 |
| O=C(C(Nc1ccccc1F)c1ccc(-c2ccncc2)cc1)N1CCCC1c1ccccc1F (racemic) | 25 | – |
| O=C(O)c1ccc(C2CCCN2C(=O)C(Nc2ccccc2F)c2cc3ccccc3s2)cc1 (racemic) | 41 | – |
| O=C(O)c1ccc(-c2ccc(C(Nc3ccccc3F)C(=O)N3CCC[C@H]3c3ccccc3F)cc2)cc1 (mixture of isomers) | 56 | – |

Further lines, with some results ahead:

| IC50 [1] [nM] | SMILES | inhibition in vivo at 30 mg/kg (Rattus norvegicus) [%] |
| --- | --- | --- |
| 40 | O=C(O)c1cccc(C2CCCN2C(=O)C(Nc2ccccc2F)c2ccc(C(F)(F)F)cc2)c1 (racemic) | – |
| 168 | O=C(C(Nc1ccccc1)c1ccc(C(F)(F)F)cc1)N1CCC[C@@H]1c1ccccc1Cl (mixture of isomers) | – |
| 7 | O=C(C(Nc1ccccc1F)c1ccc(C(F)(F)F)cc1)N1CCCC1c1ccccc1F (racemic) | – |
| 11 | O=C(C(Nc1ccccc1F)c1ccc(C(F)(F)F)cc1)N1CCCC1c1ccccc1Cl (racemic) | – |
| 8 | O=C(C(Nc1ccccc1F)c1ccc(C(F)(F)F)cc1)N1CCC[C@H]1c1ccccc1F (mixture of isomers) | 63 |
| 45 | O=C([C@H](Nc1ccccc1F)c1ccc(C(F)(F)F)cc1)N1CCC[C@H]1c1ccccc1F | – |
| 9 | O=C(C(Nc1ccccc1F)c1ccc(Br)cc1)N1CCC[C@H]1c1ccccc1F (mixture of isomers) | – |
| 44 | O=C(C(Nc1ccccc1F)c1ccc(C(F)(F)F)cc1)N1CCC[C@@H]1c1ccccc1F (mixture of isomers) | – |
| 41 | O=C(C(Nc1ccccc1)c1ccc(C(F)(F)F)cc1)N1CCC[C@H]1c1ccccc1Cl (mixture of isomers) | – |
| 6 | O=C([C@@H](Nc1ccccc1F)c1ccc(C(F)(F)F)cc1)N1CCC[C@H]1c1ccccc1F | 99 |
| 17 | O=C(C(Nc1ccccc1F)c1ccc(C(F)(F)F)cc1)N1CCC[C@H]1c1ccccc1Cl (mixture of isomers) | 79 |
